# pIC50: −log10 of the molar value.
# Key:
# Assay in all cases: KAM-matrix competition in K562 lysate;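 as to 0.001 uM KAM: median log10 fold change of treatment over DMSO control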;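 as to 0.01 uM KAM: median log10 fold change of treatment over DMSO control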;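 as to 0.1 uM KAM: median log10 fold change of treatment over DMSO control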;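 as to 1 uM KAM: median log10 fold change of treatment over DMSO control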;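 as to 10 uM KAM: median log10 fold change of treatment over DMSO control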
# Type in all cases: binding
# STK25 = molecular target: T1, STK25 (Homo sapiens, UniProt O00506);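 as to 0.001 uM KAM: median log10 fold change of treatment over DMSO control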;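 as to 0.01 uM KAM: median log10 fold change of treatment over DMSO control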;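 as to 0.1 uM KAM: median log10 fold change of treatment over DMSO control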;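 as to 1 uM KAM: median log10 fold change of treatment over DMSO control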;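 as to 10 uM KAM: median log10 fold change of treatment over DMSO control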
# T1 construct: endogenous in cells; host or cells: K562 cell lysate
# T1 sequence (O00506 whole entry): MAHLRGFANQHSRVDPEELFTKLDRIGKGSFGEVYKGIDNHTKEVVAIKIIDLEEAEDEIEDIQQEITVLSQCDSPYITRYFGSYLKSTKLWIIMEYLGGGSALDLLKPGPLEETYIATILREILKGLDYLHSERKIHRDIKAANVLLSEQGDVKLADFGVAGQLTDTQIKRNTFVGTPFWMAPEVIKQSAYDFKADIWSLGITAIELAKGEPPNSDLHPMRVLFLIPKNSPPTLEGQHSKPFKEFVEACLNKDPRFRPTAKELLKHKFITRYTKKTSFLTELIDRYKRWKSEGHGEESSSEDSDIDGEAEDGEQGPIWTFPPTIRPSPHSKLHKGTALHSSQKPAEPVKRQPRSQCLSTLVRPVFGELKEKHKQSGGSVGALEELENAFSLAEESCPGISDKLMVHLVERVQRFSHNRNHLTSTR
# Procedure: (§1) Supplement 12953_2017_125_MOESM1_ESM.zip/MS_Supp Info.xlsx, sheet "KAM" | column: 10 uM KAM; 1 uM KAM; 0.1 uM KAM; 0.01 uM KAM; 0.001 uM KAM; RB50
# ACVR1 = molecular target: T2, ACVR1 (Homo sapiens, UniProt Q04771)
# T2 construct: endogenous in cells; host or cells: K562
# T2 sequence (Q04771 21-509): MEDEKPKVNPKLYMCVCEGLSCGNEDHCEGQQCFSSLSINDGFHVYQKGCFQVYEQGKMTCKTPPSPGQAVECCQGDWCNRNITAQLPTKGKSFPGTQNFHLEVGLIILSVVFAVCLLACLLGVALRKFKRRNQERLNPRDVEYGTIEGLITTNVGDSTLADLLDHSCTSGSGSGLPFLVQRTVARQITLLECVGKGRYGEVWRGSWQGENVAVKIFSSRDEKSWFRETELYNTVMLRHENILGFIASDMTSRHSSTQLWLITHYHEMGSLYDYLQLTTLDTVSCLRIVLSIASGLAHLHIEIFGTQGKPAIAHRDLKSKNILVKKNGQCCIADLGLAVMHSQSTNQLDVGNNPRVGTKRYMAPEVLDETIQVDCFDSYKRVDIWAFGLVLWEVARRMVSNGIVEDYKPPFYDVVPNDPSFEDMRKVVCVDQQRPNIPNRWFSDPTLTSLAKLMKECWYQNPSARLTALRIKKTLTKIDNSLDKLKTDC
# Procedure: as §1
# STK24 = molecular target: T3, STK24 (Homo sapiens, UniProt Q9Y6E0);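 as to 0.001 uM KAM: median log10 fold change of treatment over DMSO control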;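 as to 0.01 uM KAM: median log10 fold change of treatment over DMSO control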;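 as to 0.1 uM KAM: median log10 fold change of treatment over DMSO control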;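 as to 1 uM KAM: median log10 fold change of treatment over DMSO control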;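 as to 10 uM KAM: median log10 fold change of treatment over DMSO control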
# T3 construct: endogenous in cells; host or cells: K562
# T3 sequence (Q9Y6E0 whole entry): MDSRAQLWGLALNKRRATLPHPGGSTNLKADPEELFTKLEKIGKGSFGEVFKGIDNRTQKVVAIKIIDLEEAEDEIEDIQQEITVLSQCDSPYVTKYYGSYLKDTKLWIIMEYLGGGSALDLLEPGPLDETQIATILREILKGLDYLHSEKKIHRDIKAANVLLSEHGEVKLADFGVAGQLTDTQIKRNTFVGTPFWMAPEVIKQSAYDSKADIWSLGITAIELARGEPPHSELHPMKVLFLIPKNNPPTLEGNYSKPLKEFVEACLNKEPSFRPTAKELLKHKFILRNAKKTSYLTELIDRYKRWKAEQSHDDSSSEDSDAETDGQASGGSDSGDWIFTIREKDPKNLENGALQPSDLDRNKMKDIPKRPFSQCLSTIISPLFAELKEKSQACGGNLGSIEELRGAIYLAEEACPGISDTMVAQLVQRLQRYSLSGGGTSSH
# Procedure: as §1
# MAP2K7 = molecular target: T4, MAP2K7 (Homo sapiens, UniProt O14733);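 as to 0.001 uM KAM: median log10 fold change of treatment over DMSO control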;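 as to 0.01 uM KAM: median log10 fold change of treatment over DMSO control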;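 as to 0.1 uM KAM: median log10 fold change of treatment over DMSO control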;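 as to 1 uM KAM: median log10 fold change of treatment over DMSO control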;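 as to 10 uM KAM: median log10 fold change of treatment over DMSO control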
# T4 construct: endogenous in cells; host or cells: K562
# T4 sequence (O14733 1-419): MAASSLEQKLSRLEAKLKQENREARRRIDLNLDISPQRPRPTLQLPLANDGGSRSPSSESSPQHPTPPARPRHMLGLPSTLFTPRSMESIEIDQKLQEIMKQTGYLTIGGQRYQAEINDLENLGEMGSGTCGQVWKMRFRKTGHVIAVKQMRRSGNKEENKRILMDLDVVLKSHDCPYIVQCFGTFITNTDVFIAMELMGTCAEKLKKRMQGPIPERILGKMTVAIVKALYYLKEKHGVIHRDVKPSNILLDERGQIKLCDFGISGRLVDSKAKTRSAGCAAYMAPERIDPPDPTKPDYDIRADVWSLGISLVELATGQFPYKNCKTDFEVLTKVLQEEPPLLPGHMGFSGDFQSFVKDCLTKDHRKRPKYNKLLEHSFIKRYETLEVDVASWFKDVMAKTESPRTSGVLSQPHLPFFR
# Procedure: as §1
# BMPR2 = molecular target: T5, BMPR2 (Homo sapiens, UniProt Q13873);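 as to 0.001 uM KAM: median log10 fold change of treatment over DMSO control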;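 as to 0.01 uM KAM: median log10 fold change of treatment over DMSO control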;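 as to 0.1 uM KAM: median log10 fold change of treatment over DMSO control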;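 as to 1 uM KAM: median log10 fold change of treatment over DMSO control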;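 as to 10 uM KAM: median log10 fold change of treatment over DMSO control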
# T5 construct: endogenous in cells; host or cells: K562
# T5 sequence (Q13873 27-1038): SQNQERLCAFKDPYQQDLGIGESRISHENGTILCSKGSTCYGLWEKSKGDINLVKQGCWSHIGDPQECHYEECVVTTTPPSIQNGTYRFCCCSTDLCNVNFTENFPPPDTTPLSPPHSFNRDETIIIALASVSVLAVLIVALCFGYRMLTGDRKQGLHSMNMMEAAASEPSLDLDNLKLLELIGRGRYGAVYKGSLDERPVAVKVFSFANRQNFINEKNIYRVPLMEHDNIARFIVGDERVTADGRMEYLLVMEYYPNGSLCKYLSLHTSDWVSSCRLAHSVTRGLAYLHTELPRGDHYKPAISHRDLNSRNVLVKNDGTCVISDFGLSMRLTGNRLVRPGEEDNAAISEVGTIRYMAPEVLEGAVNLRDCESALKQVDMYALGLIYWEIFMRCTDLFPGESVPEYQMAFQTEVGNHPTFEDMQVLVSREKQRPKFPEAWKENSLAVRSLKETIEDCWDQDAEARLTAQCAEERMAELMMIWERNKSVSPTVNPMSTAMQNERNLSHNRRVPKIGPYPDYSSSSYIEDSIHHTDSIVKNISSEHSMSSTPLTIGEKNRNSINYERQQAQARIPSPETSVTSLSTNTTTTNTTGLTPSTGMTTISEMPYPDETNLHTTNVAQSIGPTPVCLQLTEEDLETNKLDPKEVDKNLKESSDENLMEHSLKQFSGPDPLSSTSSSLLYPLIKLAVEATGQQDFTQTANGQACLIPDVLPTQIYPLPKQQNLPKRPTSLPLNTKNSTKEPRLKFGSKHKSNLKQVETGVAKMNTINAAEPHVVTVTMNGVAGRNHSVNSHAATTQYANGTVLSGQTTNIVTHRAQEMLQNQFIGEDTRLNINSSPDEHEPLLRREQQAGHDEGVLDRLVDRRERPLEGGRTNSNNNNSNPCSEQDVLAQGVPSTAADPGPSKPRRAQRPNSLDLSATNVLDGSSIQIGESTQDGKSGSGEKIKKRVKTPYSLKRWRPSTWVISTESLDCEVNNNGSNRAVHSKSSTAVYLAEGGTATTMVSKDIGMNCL
# Procedure: as §1
# [1] = KAM 0.001-10 uM, read-out: RB50 (the source's name)
smiles,measurement,setting,value
N#CCc1ccc(Nc2nc(NCCCN)cc(Nc3cc(C4CC4)[nH]n3)n2)cc1 [KAM],pIC50,STK25; [1],< 5.00
same,0.001 uM KAM,STK25; relative to 0 uM KAM = 0,-0.05569
same,0.01 uM KAM,STK25; relative to 0 uM KAM = 0,-0.0234
same,0.1 uM KAM,STK25; relative to 0 uM KAM = 0,-0.1788
same,1 uM KAM,STK25; relative to 0 uM KAM = 0,-0.2616
same,10 uM KAM,STK25; relative to 0 uM KAM = 0,-0.2742
same,median Log10 fold change,ACVR1; 0.001 uM KAM,0.003413
same,median Log10 fold change,ACVR1; 0.01 uM KAM,-0.1656
same,median Log10 fold change,ACVR1; 0.1 uM KAM,-0.6449
same,median Log10 fold change,ACVR1; 1 uM KAM,-0.6498
same,median Log10 fold change,ACVR1; 10 uM KAM,-0.7414
same,pIC50,ACVR1; read-out: RB50 (the source's name),7.57
same,pIC50,STK24; [1],< 5.00
same,0.001 uM KAM,STK24; relative to 0 uM KAM = 0,-0.01012
same,0.01 uM KAM,STK24; relative to 0 uM KAM = 0,-0.03939
same,0.1 uM KAM,STK24; relative to 0 uM KAM = 0,-0.06162
same,1 uM KAM,STK24; relative to 0 uM KAM = 0,-0.2602
same,10 uM KAM,STK24; relative to 0 uM KAM = 0,-0.2058
same,pIC50,MAP2K7; [1],< 5.00
same,0.001 uM KAM,MAP2K7; relative to 0 uM KAM = 0,0.00178
same,0.01 uM KAM,MAP2K7; relative to 0 uM KAM = 0,-0.02319
same,0.1 uM KAM,MAP2K7; relative to 0 uM KAM = 0,-0.04803
same,1 uM KAM,MAP2K7; relative to 0 uM KAM = 0,-0.07056
same,10 uM KAM,MAP2K7; relative to 0 uM KAM = 0,-0.08653
same,pIC50,BMPR2; [1],5.18
same,0.001 uM KAM,BMPR2; relative to 0 uM KAM = 0,0.0006826
same,0.01 uM KAM,BMPR2; relative to 0 uM KAM = 0,-0.02948
same,0.1 uM KAM,BMPR2; relative to 0 uM KAM = 0,-0.09644
same,1 uM KAM,BMPR2; relative to 0 uM KAM = 0,-0.1591
same,10 uM KAM,BMPR2; relative to 0 uM KAM = 0,-0.3053

# Source: PMC5513037, “Examining the influence of specificity ligands and ATP-competitive ligands on the overall effectiveness of bivalent kinase inhibitors” (Proteome Science, 2017)
